Numbers after ± are expanded uncertainties.
Details: for mass density: 101.33 kPa, Liquid

Row | SMILES | surface tension liquid-gas (288.15 K) [mN/m] | mass density (288.15 K) [kg/m3] | surface tension liquid-gas (293.15 K) [mN/m] | mass density (293.15 K) [kg/m3] | surface tension liquid-gas (298.15 K) [mN/m] | mass density (298.15 K) [kg/m3] | surface tension liquid-gas (303.15 K) [mN/m] | mass density (303.15 K) [kg/m3] | surface tension liquid-gas (308.15 K) [mN/m] | mass density (308.15 K) [kg/m3]
1 | CCCCO [butan-1-ol] | 24.68 ± 0.29 | 813.32 ± 0.23 | 24.21 ± 0.29 | 809.56 ± 0.23 | 23.79 ± 0.29 | 805.72 ± 0.24 | 23.34 ± 0.28 | 801.91 ± 0.24 | 22.79 ± 0.28 | 798.07 ± 0.24
2 | CCCCCCO [hexan-1-ol] | 26.08 ± 0.32 | 822.28 ± 0.91 | 25.61 ± 0.32 | 818.75 ± 0.92 | 25.19 ± 0.32 | 815.23 ± 0.93 | 24.74 ± 0.32 | 811.6 ± 0.94 | 24.19 ± 0.31 | 808 ± 0.95
3 | CCCCCCC [heptane] | 20.81 ± 0.27 | 687.98 ± 0.65 | 20.27 ± 0.27 | 683.78 ± 0.65 | 19.68 ± 0.27 | 679.55 ± 0.66 | 19.19 ± 0.26 | 675.3 ± 0.66 | 18.93 ± 0.26 | 671 ± 0.67
4 | CCCCCCCCO [octan-1-ol] | 27.41 ± 0.31 | 828.55 ± 0.45 | 26.94 ± 0.31 | 825.11 ± 0.45 | 26.52 ± 0.31 | 821.64 ± 0.46 | 26.07 ± 0.3 | 818.19 ± 0.46 | 25.52 ± 0.3 | 814.69 ± 0.47

Reference: the NIST ThermoML archive (doi:10.1021/je060179e)
